From ChEMBL document CHEMBL1201862, “PubChem BioAssay data set” (2004)
Calls of active or inactive are those of the source.

How the values were obtained:
[1] = target: T1, Trace amine-associated receptor 1 (Homo sapiens, UniProt Q96RJ0); assay: Fluorescence-based cell-based high throughput dose response assay to identify agonists of the human trace amine associated receptor 1 (TAAR1).; type: functional
T1 sequence (Q96RJ0 whole entry): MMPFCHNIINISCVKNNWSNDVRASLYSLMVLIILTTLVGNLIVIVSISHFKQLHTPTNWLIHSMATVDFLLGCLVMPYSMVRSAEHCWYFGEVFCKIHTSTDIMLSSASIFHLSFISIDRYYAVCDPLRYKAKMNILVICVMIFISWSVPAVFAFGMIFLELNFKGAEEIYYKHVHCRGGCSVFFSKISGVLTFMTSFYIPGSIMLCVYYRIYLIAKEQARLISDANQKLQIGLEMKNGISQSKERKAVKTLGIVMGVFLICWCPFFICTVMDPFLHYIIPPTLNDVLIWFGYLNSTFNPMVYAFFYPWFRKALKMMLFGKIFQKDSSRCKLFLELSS

[2] = target: T1, Trace amine-associated receptor 1; assay: Counterscreen for agonists of the human trace amine associated receptor 1 (hTAAR1): Fluorescence-based cell-based high throughput dose response assay to identify hTAAR1 agonist that also desensitize TAAR1 receptor response.; type: functional
cells [3] = type: functional, cell-based
cells [4] = type: functional, cell-based; remark: listed apart in the source
[5] = A2780 ovarian cancer cell cytotoxicity, dose response, cytotoxicity control, plate reader, dry powder samples (AID 743046); type: functional, cell-based
[6] = NIH:OVCAR-3 ovarian cancer cell cytotoxicity, dose response, PAX8 inhibitor project, plate reader, dry powder samples (AID 743044); type: functional, cell-based
Paired box protein Pax-8 = Paired box protein Pax-8 (Homo sapiens, UniProt Q06710); assay: inhibitors of PAX8-driven TPO luciferase reporter, dose response, RMG-I cells, cherry-pick (AID 687027); type: functional, cell-based;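 also: luciferase reporter driven by Pax8 target thyroperoxidase promoter measured by SteadyGlo luminescence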
[7] = cytotoxicity in OVCAR8 ovarian cancer cells, dose response, PAX8 project, cell-based, plate reader, dry powder samples (AID 743197); type: functional; settings: OVCAR-8
Galanin receptor type 3 = target: T2, Galanin receptor type 3 (Homo sapiens, UniProt O60755); assay: Fluorescence-based cell-based primary high throughput dose response assay to identify antagonists of the Galanin Receptor 3 (GalR3).; type: functional
T2 sequence (O60755 whole entry): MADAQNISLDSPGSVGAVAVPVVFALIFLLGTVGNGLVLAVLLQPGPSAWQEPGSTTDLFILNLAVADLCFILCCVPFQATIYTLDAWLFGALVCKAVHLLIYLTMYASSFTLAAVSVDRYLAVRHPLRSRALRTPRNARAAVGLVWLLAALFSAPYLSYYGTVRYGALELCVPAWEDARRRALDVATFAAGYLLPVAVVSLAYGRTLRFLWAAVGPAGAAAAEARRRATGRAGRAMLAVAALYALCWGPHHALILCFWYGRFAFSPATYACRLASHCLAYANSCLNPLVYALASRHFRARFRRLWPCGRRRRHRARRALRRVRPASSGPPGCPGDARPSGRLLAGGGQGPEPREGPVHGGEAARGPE

cells [8] = type: functional, cell-based; settings: HEK-CNG
Protein RecA = target: T3, Protein RecA (Mycobacterium tuberculosis, UniProt P9WHJ3); assay: Fluorescence Cell-Free Homogeneous Dose Retest to Identify Inhibitors of RecA-Intein Splicing Activity. [Related pubchem assays (depositor defined):AID2097, AID2223, AID489010, AID492950]; type: functional
T3 sequence (P9WHJ3 whole entry): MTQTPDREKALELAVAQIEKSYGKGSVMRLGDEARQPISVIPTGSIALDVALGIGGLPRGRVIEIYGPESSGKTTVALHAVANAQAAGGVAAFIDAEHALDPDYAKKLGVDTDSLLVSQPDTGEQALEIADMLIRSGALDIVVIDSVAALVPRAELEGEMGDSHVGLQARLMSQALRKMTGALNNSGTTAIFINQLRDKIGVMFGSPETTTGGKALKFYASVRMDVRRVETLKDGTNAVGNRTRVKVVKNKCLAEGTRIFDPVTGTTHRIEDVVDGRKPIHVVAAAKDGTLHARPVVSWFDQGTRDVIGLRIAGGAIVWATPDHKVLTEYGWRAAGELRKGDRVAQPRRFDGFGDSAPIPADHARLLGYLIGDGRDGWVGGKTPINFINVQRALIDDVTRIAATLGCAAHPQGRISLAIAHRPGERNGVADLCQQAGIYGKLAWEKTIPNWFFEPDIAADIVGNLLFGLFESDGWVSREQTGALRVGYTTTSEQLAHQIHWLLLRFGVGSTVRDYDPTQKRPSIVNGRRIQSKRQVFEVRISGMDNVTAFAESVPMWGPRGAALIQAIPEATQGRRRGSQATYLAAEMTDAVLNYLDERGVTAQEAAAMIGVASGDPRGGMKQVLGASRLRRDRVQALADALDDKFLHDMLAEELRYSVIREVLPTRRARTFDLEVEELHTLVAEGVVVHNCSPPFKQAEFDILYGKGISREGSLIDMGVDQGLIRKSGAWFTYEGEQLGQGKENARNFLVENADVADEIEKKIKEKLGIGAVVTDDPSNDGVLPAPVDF

[9] = target: T4, Replicative DNA helicase DnaB (Mycobacterium tuberculosis, UniProt P9WMR3); assay: DnaB intein splicing inhibitors, dose response, biochemical, cell-free fluorescence (AID 449749); type: functional
T4 sequence (P9WMR3 whole entry): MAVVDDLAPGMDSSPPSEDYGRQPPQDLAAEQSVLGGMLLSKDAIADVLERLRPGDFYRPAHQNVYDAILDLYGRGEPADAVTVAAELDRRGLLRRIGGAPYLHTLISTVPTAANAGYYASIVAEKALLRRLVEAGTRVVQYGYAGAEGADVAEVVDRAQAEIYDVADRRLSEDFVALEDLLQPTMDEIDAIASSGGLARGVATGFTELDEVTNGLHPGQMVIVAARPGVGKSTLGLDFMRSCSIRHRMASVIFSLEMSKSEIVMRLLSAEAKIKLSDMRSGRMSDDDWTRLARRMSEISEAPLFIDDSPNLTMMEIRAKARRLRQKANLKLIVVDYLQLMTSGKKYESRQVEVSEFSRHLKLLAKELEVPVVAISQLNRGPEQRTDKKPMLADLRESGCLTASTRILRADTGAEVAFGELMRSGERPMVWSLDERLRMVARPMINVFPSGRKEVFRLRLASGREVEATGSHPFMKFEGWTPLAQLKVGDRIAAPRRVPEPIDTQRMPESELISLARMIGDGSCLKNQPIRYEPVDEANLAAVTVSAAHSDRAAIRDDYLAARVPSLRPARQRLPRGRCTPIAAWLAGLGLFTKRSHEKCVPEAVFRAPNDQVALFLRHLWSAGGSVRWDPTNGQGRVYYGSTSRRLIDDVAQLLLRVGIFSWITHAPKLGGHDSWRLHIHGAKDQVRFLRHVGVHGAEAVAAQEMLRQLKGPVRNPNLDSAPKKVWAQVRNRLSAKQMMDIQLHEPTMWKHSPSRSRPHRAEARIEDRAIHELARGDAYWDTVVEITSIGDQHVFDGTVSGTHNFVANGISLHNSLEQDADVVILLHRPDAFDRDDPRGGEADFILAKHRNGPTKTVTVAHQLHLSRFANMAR

Caspase-6 = target: T5, Caspase-6 (Homo sapiens, UniProt P55212); assay: human caspase-6 inhibitors, dose response, biochemical, VEID-R110 fluorescence, cherry-pick (AID 720632)
T5 sequence (P55212 whole entry): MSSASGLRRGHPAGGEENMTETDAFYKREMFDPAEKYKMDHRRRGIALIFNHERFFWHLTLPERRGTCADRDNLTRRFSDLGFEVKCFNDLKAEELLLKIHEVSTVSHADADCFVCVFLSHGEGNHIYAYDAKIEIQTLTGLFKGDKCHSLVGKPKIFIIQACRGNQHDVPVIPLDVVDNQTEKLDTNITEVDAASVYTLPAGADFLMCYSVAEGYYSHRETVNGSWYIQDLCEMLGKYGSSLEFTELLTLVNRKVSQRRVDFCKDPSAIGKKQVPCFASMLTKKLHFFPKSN

[10] = Shn3 3'UTR reporter inhibitors, dose response, cell-based, Clone20 osteoblasts, firefly luciferase, cherry-picked (AID 624132); type: functional;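 also: firefly luciferase luminescence from reporter carrying the Shn3 3'UTR in osteoblasts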
[11] = target: T6, COUP transcription factor 2 (Homo sapiens, UniProt P24468); assay: Luminescence-based cell-based high throughput dose response assay to identify inhibitors of COUP-TFII (NR2F2).; type: functional;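 also: HEK293 cells transiently cotransfected with COUP-TFII expression vector and reporter; luciferase reporter luminescence driven by COUP-TFII from the pX2-168 reporter plasmid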
T6 sequence (P24468 whole entry): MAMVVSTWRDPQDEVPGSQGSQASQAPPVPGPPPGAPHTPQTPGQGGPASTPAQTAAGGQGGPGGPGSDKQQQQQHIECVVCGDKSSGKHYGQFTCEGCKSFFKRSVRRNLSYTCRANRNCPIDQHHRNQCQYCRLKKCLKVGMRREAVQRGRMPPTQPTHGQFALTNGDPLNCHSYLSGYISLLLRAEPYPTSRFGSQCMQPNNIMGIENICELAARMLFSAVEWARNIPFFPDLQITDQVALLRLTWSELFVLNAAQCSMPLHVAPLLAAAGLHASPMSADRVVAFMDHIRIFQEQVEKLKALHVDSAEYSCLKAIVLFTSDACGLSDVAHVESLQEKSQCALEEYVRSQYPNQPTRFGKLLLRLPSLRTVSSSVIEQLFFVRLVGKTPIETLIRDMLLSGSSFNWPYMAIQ

[12] = HepG2 cell cytotoxicity, dose response, cytotoxicity control for Shn3 inhibitor project, CellTiter-Glo, cherry-picked (AID 624134); type: functional, cell-based
[13] = control 3'UTR Renilla luciferase suppression, dose response, counter-screen for Shn3 inhibitor project, cell-based, Clone20-Shn3RL, cherry-picked (AID 624133); type: functional
Cytochrome P450 2C19 = Cytochrome P450 2C19 (Homo sapiens, UniProt P33261); assay: Cytochrome panel assay with activity outcomes. Panel member name: p450-cyp2c19 Compounds with AC50 equal or less than 10 uM are considered active; type: functional; settings: read-out: AC50
Cytochrome P450 2C9 = Cytochrome P450 2C9 (Homo sapiens, UniProt P11712)
Beta-galactosidase = Beta-galactosidase (Escherichia coli, UniProt Q8VNN2); assay: Dose response counterscreen for EBI2 assay utilizing the enzyme, b-galactosidase.; type: functional
[14] = P. falciparum ATP4 D1247Y mutant growth inhibitors, dose response, NITD609-resistant line, SYBR Green, dry powder (AID 1159571); type: functional, cell-based;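 also: parasites synchronized at ring stage by sorbitol before testing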
[15] = P. falciparum 3D7-ScDHODH growth inhibitors, dose response, SYBR Green, dry powder samples (AID 1159570); type: functional, cell-based;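 also: parasite growth measured after 72 hours of compound exposure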
[16] = HepG2 cell cytotoxicity, dose response, cytotoxicity control, plate reader, dry powder samples (AID 1159569); type: functional, cell-based;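 also: inhibitor potency with signal falling toward the positive control level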
[17] = P. falciparum Dd2 growth inhibitors, dose response, SYBR Green, dry powder samples (AID 1159566); type: functional, cell-based;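 also: potency for growth inhibition with lower SYBR green DNA signal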
[18] = IGROV1 ovarian cancer cell cytotoxicity, dose response, PAX8 inhibitor project, plate reader, dry powder samples (AID 743043); type: functional, cell-based; settings: IGROV-1

Chain of Paired box protein Pax-8 (Q06710 whole entry): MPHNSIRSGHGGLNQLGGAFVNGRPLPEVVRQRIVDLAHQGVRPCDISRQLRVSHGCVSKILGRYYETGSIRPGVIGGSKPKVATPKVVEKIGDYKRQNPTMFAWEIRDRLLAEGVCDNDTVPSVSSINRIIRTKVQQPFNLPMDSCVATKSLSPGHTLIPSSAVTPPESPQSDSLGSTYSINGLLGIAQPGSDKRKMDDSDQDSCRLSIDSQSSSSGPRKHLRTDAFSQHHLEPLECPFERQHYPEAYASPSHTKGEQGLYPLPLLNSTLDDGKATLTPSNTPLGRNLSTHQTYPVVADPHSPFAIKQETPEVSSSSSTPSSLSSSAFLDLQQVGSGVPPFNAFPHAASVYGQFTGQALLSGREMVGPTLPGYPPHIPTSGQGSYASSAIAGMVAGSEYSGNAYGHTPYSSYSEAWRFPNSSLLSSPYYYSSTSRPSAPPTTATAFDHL
Chain of Cytochrome P450 2C19 (P33261 whole entry): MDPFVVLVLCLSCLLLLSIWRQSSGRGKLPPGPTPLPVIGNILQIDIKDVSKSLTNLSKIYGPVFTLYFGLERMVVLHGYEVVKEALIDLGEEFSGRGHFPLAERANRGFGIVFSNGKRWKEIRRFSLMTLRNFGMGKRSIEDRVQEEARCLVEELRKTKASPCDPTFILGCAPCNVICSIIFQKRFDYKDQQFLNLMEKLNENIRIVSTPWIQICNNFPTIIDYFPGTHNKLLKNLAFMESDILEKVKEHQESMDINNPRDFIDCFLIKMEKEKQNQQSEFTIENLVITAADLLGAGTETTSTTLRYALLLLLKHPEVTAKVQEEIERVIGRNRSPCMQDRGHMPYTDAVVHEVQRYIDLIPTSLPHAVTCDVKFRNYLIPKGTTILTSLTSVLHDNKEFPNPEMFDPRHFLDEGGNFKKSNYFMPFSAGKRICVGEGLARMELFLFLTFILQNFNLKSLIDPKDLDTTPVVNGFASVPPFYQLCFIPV
Chain of Cytochrome P450 2C9 (P11712 whole entry): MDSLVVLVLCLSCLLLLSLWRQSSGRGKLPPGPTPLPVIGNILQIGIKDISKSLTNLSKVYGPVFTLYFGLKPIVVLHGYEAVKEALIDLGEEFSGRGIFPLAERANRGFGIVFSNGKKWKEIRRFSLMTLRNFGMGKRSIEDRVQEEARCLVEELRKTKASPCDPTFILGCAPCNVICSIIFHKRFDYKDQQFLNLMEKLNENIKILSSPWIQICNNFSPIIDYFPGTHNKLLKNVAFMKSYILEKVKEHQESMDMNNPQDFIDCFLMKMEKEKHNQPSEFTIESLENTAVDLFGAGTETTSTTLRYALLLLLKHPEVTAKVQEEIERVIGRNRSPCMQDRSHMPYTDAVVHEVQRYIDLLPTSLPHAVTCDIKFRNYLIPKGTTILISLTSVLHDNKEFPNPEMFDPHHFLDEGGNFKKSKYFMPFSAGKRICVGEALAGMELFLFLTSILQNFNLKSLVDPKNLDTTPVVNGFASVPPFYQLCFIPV
Chain of Beta-galactosidase (Q8VNN2 whole entry): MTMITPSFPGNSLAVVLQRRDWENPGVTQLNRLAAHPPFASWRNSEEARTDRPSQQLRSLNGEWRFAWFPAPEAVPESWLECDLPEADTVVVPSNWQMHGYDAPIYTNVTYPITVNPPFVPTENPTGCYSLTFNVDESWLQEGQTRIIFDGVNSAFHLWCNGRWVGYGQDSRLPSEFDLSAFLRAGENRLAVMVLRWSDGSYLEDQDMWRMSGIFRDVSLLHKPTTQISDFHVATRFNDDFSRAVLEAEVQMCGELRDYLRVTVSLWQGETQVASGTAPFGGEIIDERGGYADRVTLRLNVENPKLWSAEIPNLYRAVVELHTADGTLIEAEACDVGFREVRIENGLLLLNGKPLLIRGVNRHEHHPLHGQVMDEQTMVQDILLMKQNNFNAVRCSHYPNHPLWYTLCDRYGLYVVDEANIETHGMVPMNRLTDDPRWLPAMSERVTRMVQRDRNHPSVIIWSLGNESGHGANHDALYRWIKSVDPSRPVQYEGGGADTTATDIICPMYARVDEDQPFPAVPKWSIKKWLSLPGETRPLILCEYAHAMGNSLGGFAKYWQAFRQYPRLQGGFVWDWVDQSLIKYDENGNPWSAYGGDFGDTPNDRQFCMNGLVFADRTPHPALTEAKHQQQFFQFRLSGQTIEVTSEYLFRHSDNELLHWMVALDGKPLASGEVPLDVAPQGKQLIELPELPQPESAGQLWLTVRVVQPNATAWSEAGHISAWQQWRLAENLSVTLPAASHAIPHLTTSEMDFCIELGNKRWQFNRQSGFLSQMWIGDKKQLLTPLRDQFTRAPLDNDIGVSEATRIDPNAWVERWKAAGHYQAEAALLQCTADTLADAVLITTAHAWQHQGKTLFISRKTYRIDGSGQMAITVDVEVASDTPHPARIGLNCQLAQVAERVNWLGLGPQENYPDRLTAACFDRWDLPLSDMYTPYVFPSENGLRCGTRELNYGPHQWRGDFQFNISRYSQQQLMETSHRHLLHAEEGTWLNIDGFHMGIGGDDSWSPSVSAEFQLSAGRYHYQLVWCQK

N#Cc1c(N)sc2c1CCN(CCc1ccccc1)C2
EC50 [1]: 1.58 µM (active) | IC50 [2]: 9.09 µM (active) | IC50 (cells [3]): > 29.9 µM (inactive) | EC50 (cells [4]): > 29.9 µM (inactive)

C[C@@H]1CCCCO[C@@H](CN(C)C(=O)NC2CCCCC2)[C@H](C)CN([C@H](C)CO)C(=O)c2cc(NS(=O)(=O)c3ccc(Cl)cc3)ccc2O1
AC50 [5]: 15.7 µM (active) | AC50 [6]: 38.3 µM (active) | AC50 (Paired box protein Pax-8): 7.57 µM (active) | AC50 [7]: > 70 µM (inactive)

Cc1cc2c(ccc3c2no[n+]3[O-])nn1
IC50 (Galanin receptor type 3): > 29.9 µM (inactive) | EC50 (cells [8]): > 29.9 µM (inactive)

CC1=NN(c2ccc(S(=O)(=O)O)cc2Cl)C(=O)C1
EC50 (Protein RecA): 9.45 µM (active) | AC50 [9]: 4.45 µM (active) | AC50 (Caspase-6): 19 µM (active)

Oc1cnnc(Nc2ccccc2)n1
EC50 [1]: 4.6 µM (active) | IC50 [2]: > 29.9 µM (inactive) | IC50 (cells [3]): > 29.9 µM (inactive) | EC50 (cells [4]): > 29.9 µM (inactive)

O=C(N[C@@H](Cc1cccnc1)C(=O)N1CCC[C@H]1C(=O)NCCc1ccccc1Cl)C1CCCC1
EC50 [1]: 2.91 µM (active) | IC50 [2]: 3.72 µM (active) | IC50 (cells [3]): > 29.9 µM (inactive) | EC50 (cells [4]): > 29.9 µM (inactive)

CCCCCCn1c(NCC)nc2c1c(=O)n(C)c(=O)n2C
AC50 [10]: 0.834 µM (active) | IC50 (Galanin receptor type 3): > 1.11 µM (active) | IC50 [11]: 9.46 µM (active) | EC50 (cells [8]): > 29.9 µM (inactive) | AC50 [12]: 2.55 µM (active) | AC50 [13]: 9.18 µM (active)

O=C(COc1ccc2ccccc2c1)N1CCN(C(=O)c2cccnc2)CC1
AC50 (Cytochrome P450 2C19): 15.8 µM (inconclusive) | AC50 (Cytochrome P450 2C9): 31.6 µM (inconclusive) | IC50 (Beta-galactosidase): > 80 µM (inactive)

COc1ccccc1CN1CC2(C1)[C@H](c1ccccc1)[C@H](CO)N2Cc1ccccc1
AC50 [14]: 2.85 µM (active) | AC50 [15]: 4.14 µM (active) | AC50 [16]: 23.9 µM (active) | AC50 [17]: 1.96 µM (active)

Fc1ccc(CN2CCN(c3ncc(Cc4ccccc4)cn3)CC2)c(Cl)c1
IC50 (Galanin receptor type 3): 1.06 µM (active) | IC50 [11]: 10.1 µM (inactive) | EC50 (cells [8]): > 29.9 µM (inactive)

C[C@@H]1CN([C@H](C)CO)C(=O)c2cc(NC(=O)NC3CCCCC3)ccc2O[C@@H](C)CCCCO[C@H]1CN(C)Cc1ccc(C(F)(F)F)cc1
AC50 [18]: 24.8 µM (active) | AC50 [5]: 25.7 µM (active) | AC50 [6]: 12.7 µM (active) | AC50 (Paired box protein Pax-8): 6.85 µM (active) | AC50 [7]: 54.1 µM (active)

Cc1ccccc1-c1nc(CS(=O)(=O)CC(=O)NCCc2ccccc2)c(C)o1
EC50 [1]: 3.59 µM (active) | IC50 [2]: 8.58 µM (active) | IC50 (cells [3]): > 29.9 µM (inactive) | EC50 (cells [4]): > 29.9 µM (inactive)

COc1ccc(-c2ccc3c(c2)[C@@H]2[C@@H](CCN2C(=O)C2CCCCC2)[C@H](CO)N3C)cc1
AC50 [18]: 47.5 µM (active) | AC50 [5]: 10.7 µM (active) | AC50 [6]: 25.2 µM (active) | AC50 (Paired box protein Pax-8): 6.75 µM (active) | AC50 [7]: 32.7 µM (active)
